For orientation: IC50 means the point on the concentration scale where inhibition reaches its midpoint. Low values mean greater potency in that assay, high ones weaker potency in that assay. As usually defined, the EC50 is the concentration giving half of the maximal effect. Low readings indicate greater potency, high ones weaker potency.

Where only a bound is given, the exact number is not on record here.

For 20 molecules, IC50 and EC50 results are on record in BindingDB's records for doi:10.1021/jm0303094 (Aton Pharma, 2003).

The target of one assay is Histone deacetylase. The assay is described as follows: Inhibitory concentration determined against Histone deacetylase from Eimeria tenella.
A short description of assay [1]: Inhibition of acetylation of histone-4 in human T-24 cancer cells.

For the molecule `CCC(C)[C@@H]1NC(=O)[C@H](Cc2cn(OC)c3ccccc23)NC(=O)[C@H](CCCCCC(=O)NO)NC(=O)[C@H]2CCCCN2C1=O` (stereo partly drawn) [6-[(6S,9S,12S,14aR)-6-sec-Butyl-9-(1-methoxy-1H-indol-3-ylmethyl)-5,8,11,14-tetraoxo-tetradecahydro-4a,7,10,13-tetraaza-benzocyclododecen-12-yl]-hexanoic acid hydroxyamide], the IC50 against Histone deacetylase amounted to 4 nM. As to `Cc1ccc(S(=O)(=O)Nc2ccc(/C=C/C(=O)NO)cc2)cc1` [US8796330, 108], the midpoint of the response in assay [1], the EC50, lay at 10000 nM. Take `CCC(C)[C@@H]1NC(=O)[C@H](Cc2cn(OC)c3ccccc23)NC(=O)[C@H](CCCCCC(=O)C2CO2)NC(=O)[C@H]2CCCCN2C1=O` (stereo partly drawn) [(6S,9S,12S,14aR)-6-sec-Butyl-9-(1-methoxy-1H-indol-3-ylmethyl)-12-(6-oxiranyl-6-oxo-hexyl)-decahydro-4a,7,10,13-tetraaza-benzocyclododecene-5,8,11,14-tetraone]: the IC50 at Histone deacetylase was determined as 1 nM. For the molecule `CC(C)C(Cc1ccc(NS(=O)(=O)c2ccccc2)cc1)C(=O)NO` (stereo not given) [US8796330, 81], the EC50 in assay [1] was above 25000 nM.

At Histone deacetylase, `CCC(C)[C@@H]1NC(=O)[C@H](Cc2cn(OC)c3ccccc23)NC(=O)[C@H](CCCCCC(=O)O)NC(=O)[C@H]2CCCCN2C1=O` (stereo partly drawn) [6-[(6S,9S,12S,14aR)-6-sec-Butyl-9-(1-methoxy-1H-indol-3-ylmethyl)-5,8,11,14-tetraoxo-tetradecahydro-4a,7,10,13-tetraaza-benzocyclododecen-12-yl]-hexanoic acid] showed an IC50 of 30 nM. `O=C(CCc1ccc(NS(=O)(=O)c2ccccc2)cc1)NO` [US8796330, 38]: a half-maximal effect in assay [1] (EC50) was put at 5000 nM. Molecule `CCC(C)[C@@H]1NC(=O)[C@H](Cc2cn(OC)c3ccccc23)NC(=O)[C@H](CCCCCC(=O)OC)NC(=O)[C@H]2CCCCN2C1=O` (stereo partly drawn) [6-[(6S,9S,12S,14aR)-6-sec-Butyl-9-(1-methoxy-1H-indol-3-ylmethyl)-5,8,11,14-tetraoxo-tetradecahydro-4a,7,10,13-tetraaza-benzocyclododecen-12-yl]-hexanoic acid methyl ester] showed an IC50 at Histone deacetylase of 0.8 nM. `O=C(CCCc1ccc(NS(=O)(=O)c2ccccc2)cc1)NO` [US8796330, 42] displayed a concentration for a half-maximal effect (EC50) in assay [1] above 25000 nM. As to `COc1ccc(S(=O)(=O)Nc2ccc(/C=C/C(=O)NO)cc2)cc1OC` [US8796330, 90], the EC50 in assay [1] came to 1000 nM.

For `O=C(/C=C/c1ccc(S(=O)(=O)Nc2ccc(-c3ccccc3)cc2)cc1)NO`, in assay [1], a half-maximal response (EC50) required 1000 nM. The same measure, in the same setting: next, `Cc1ccc(NS(=O)(=O)c2ccc(/C=C/C(=O)NO)cc2)cc1` [US8796330, 161]: 1000 nM; `O=C(/C=C/c1ccc(NS(=O)(=O)c2ccc(-c3ccccc3)cc2)cc1)NO` [US8796330, 120]: 1000 nM; `O=C(NO)c1ccc(NS(=O)(=O)c2ccccc2)cc1` [4-Benzenesulfonylamino-N-hydroxy-benzamide]: 5000 nM. As to `COc1ccc(S(=O)(=O)Nc2ccc(/C=C/C(=O)NO)cc2)cc1` [US8796330, 113], a half-maximal effect in assay [1] (EC50) was put at 5000 nM.

In turn, `O=C(Cc1ccc(NS(=O)(=O)c2ccccc2)cc1)NO` [2-(4-Benzenesulfonylamino-phenyl)-N-hydroxy-acetamide] registered an EC50 in assay [1] above 25000 nM. For `COc1ccc(NC(=O)Nc2ccc(/C=C/C(=O)NO)cc2)cc1OC`, the EC50 in assay [1] is above 25000 nM.

`CN(c1ccc(/C=C/C(=O)NO)cc1)S(=O)(=O)c1ccccc1` had an EC50 in assay [1] above 25000 nM. In assay [1], `C/C(=C\c1ccc(NS(=O)(=O)c2ccccc2)cc1)C(=O)NO` [US8796330, 91] showed an EC50 above 25000 nM. In the case of `CCC(C)[C@@H]1NC(=O)[C@H](Cc2cn(OC)c3ccccc23)NC(=O)[C@H](CCCCCC(=O)C(C)O)NC(=O)[C@H]2CCCCN2C1=O` (stereo partly drawn) [(6S,9S,12S,14aR)-6-sec-Butyl-12-(7-hydroxy-6-oxo-octyl)-9-(1-methoxy-1H-indol-3-ylmethyl)-decahydro-4a,7,10,13-tetraaza-benzocyclododecene-5,8,11,14-tetraone], on Histone deacetylase, the IC50 came out at 4 nM. With `CC(Cc1ccc(NS(=O)(=O)c2ccccc2)cc1)C(=O)NO` (stereo not given) [3-(4-Benzenesulfonylamino-phenyl)-N-hydroxy-2-methyl-propionamide], in assay [1], the EC50 was above 25000 nM.
